Assays:
stromelysin = stromelysin (Homo sapiens, UniProt P08254); assay: Assay of stromelysin inhibition activity (fluorogenic coumarin peptide substrate); format: biochemical; settings: trypsin-activated stromelysin 2 nM, H-150 buffer pH 7.4, room temperature; read-out: Ki(app)
In short: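 Human stromelysin trypsin-activated, then used at 2 nM in HEPES/NaCl/CaCl2 buffer pH 7.4 at room temperature with coumarin peptide substrate. Initial hydrolysis rate followed by fluorescence (ex 328/em 393 nm); inhibitor added stepwise to 30-70% inhibition, Ki derived assuming simple competitive inhibition with substrate far below Km.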

92 kD gelatinase = 92 kD gelatinase (Homo sapiens, UniProt P14780); assay: Assay of 92 KD gelatinase inhibition activity; format: biochemical; settings: 92KD gelatinase 25 pM, H-150 buffer pH 7.4; read-out: Ki(app)
Experimental: H-150 buffer, pH 7.4, was prepared by CaCl2 H2 O (1.47 grams), NaCl (8.77 grams) and N-[2-hydroxyethyl]piperazine-N'-[2-ethanesulfonic acid](23.83 grams) to distilled and deionized water and then bring the final volume of the solution to 1 liter. A reaction mixture having a final volume of 500 μL was prepared with H-150 buffer, 200 μgrams of Pro-92KD gelatinase (Strongin et al., J. Biol. Chem., 268:14033 (1993); Goldberg, et al., J. Biol. Chem., 267:4583 (1992); Okada et al., J. Biol. Chem. 267:21712 (1992)), p-aminophenyl mercuric acetate (Sigma Chemical Co., St. Louis, Mo.) (1 mM) and Brij (dodexylpoly(oxyethyleneglycolether))(0,008% w/v). The reaction mixture wsa then incubated for 24 hours at 37° C.
The reaction mixture was applied to a NAP-5 column (G-25 SEPHADEX™, Pharmacia). Fractions containing 72KD gelatinase were identified using 12% polyacrylamide gel electrophoresis and concentrated to about 100-200 μliters by centrifigation (5000 g, 1 hour).
A solution containing H-150 buffer (2.0 mL), 92KD gelatinase (25 pM) and ethylphenolpoly(ethylene-glycolether)n (Boerhringer Mannheim) (4.0 μM) was prepared in a stirred cuvette. Coumarin peptide substrate (4 μL of a 5 mM solution in dimethyl sulfoxide) was added to the reaction mixture. The rate of hydrolysis was determined for about 100-200 seconds by measuring the fluorescence of the reaction at ex328 nanometers and […] using a Hitachi F-2000 Fluorescence Spectrophotometer.
(§1) 2 μL of a 10 mM inhibitor stock solution (in dimethyl sulfoxide) is added and the reduction in the rate of hydrolysis is determined. Additional 2 μL aliquots of the stock inhibitor solution is added until a 30% to 70% inhibition is observed. Ki is calculated on the assumption of simple competitive inhibition and that the substrate concentration is much less than Km.

[1] = system: bovine cartilage explants; assay: Bovine cartilage explant assay (35S-GAG release, rhIL-1α stimulated); format: cell-based; settings: rhIL-1α 5 ng/mL, 3-4 days culture
Description: A tissue culture assay was used to measure the ability of the compounds of the present invention to slow the degradation of the extracellular matrix by metalloproteinases. This assay measured the amount of ^35 S-glycosaminoglycan (^35 S-GAG) released from labeled bovine cartilage explants.
Knee joints from a 1 to 3 week old calf were obtained immediately after sacrifice from the Abattoir and then transported on ice. The intact joints were washed well with tap water and soaked in 50% (v/v) Povidine iodine solution, obtained from Burre National, Inc., Baltimore, Md. All subsequent steps were performed in a laminar flow tissue culture hood using standard sterile technique. The joint was immobilized in a shank holder and the joint capsule was cut open to expose the articular cartilage. Cartilage explant plugs, approximately 15 mg wet weight, were removed from the flat articulating surfaces in the lower-most region of the knee joint using a sterile steel cork-borer and collected in a 250 mL roller bottle containing about 100 mL fresh Delbecco's minimum essential medium (DMEM), obtained from Gibco BRC, Life Technologies, Gaithersburg, Md., containing 4.5 g/l (D)-glucose and (L)-glutamine, without sodium pyruvate. The fresh media also contained enough Hepes buffer and sodium bicarbonate such that the pH was about 7.4. The media was then further supplemented just before use with 100 units Penicillin, 100 μg Streptomycin, and 50 μg (L)-ascorbic acid per mL of medium.
Once collected, the explant plugs were washed four times with 50 mL fresh DMEM. The plugs were then placed in the incubator for a minimum of 1 hour to equilibrate, before proceeding to make disks from the articulating surface of each plug. A 1 mm thick disk was sliced from individual plugs from the end that was the articulating surface of the joint. The plug was held steady in the sterile template (4 mm diameter×1.5 mm deep) using sterile forceps. A scalpel blade was used to carefully slice off the disk. Only the superficial articulating surface responded well in culture.
Individual disks obtained were transferred to a tissue culture flask containing about 100 mL fresh media. The flask containing the disks was placed in an incubator at 37° C. (with 5% CO2, 95% air) and allowed to equilibrate overnight and at least one additional day before labeling. When ready to label, the old media was replaced with 50 mL fresh media containing about 500 μCi ^35 S-Sodium Sulfate. The plugs were labeled in bulk for about 48 hours. The next morning, the "hot" media was removed and replaced with fresh "cold" media. The disks were again allowed to equilibrate overnight before being used for actual experiments.
The media in which the disks were stored was changed immediately prior to performing the assay. The disks were then returned to the incubator until the test media and the two control media had been prepared. The test media consisted of the desired concentration of a compound being tested for its ability to inhibit extracellular matrix degradation and concomitant recombinant human Interleukin rhIL-1α (5 ng/mL) in fresh DMEM solution. The control media were identical to the test media, except that the first control media lacked rhIL-1α and the second control media lacked the test compound. 250 μL of each of the test and control media were transferred to separate 96-well TC plates. Flamed forceps were used to transfer a disk from the incubator to each 96-well TC plates that had been filled with either the test media or one of the two control media.
The TC plates were then placed in the incubator and cultured for 3-4 days (initial incubation with rhIL-1α alpha takes at least 3 days to stimulate endogenous metalloproteinases). A 50 μL aliquot of media from each TC plate was saved and counted. The rest of the media was removed with a suction device.
The cartilage disks from each TC plate were also saved for counting. […]

[2] = target: human neutrophil collagenase (Homo sapiens, UniProt P22894); assay: Assay of human neutrophil collagenase inhibition activity; format: biochemical; settings: human neutrophil collagenase 2 nM, H-150 buffer pH 7.4; read-out: Ki(app)
Experimental: H-150 buffer, pH 7.4, was prepared by adding CaCl2 H2 O (1.47 grams), NaCl (8.77 grams) and N-[2-hydroxyethyl]piperazine-N'-[2-ethanesulfonic acid] (23.83 grams) to distilled and deionized water and then bringing the final volume of the solution to 1 liter.
A reaction mixture with a final volume of 2.0 mL was prepared from H-150 buffer, human neutrophil collagenase (Schnierer, et al., Blochem. Biophys. Res. Comm., 191:319 (1993); Knight et al., Federation of Europena Biochemical Societies 296:263 (1992)) (2 nM). Coumarin peptide substrate (4 μL of a 5 mM solution in dimethyl sulfoxide) was added to the reaction mixture. The rate of hydrolysis was determined for about 100-200 seconds by measuring the fluorescence of the reaction at ex328 nanometers and […] using a Hitachi F-2000 Fluorescence Spectrophotometer.
as §1

Sequence of stromelysin (P08254 100-477): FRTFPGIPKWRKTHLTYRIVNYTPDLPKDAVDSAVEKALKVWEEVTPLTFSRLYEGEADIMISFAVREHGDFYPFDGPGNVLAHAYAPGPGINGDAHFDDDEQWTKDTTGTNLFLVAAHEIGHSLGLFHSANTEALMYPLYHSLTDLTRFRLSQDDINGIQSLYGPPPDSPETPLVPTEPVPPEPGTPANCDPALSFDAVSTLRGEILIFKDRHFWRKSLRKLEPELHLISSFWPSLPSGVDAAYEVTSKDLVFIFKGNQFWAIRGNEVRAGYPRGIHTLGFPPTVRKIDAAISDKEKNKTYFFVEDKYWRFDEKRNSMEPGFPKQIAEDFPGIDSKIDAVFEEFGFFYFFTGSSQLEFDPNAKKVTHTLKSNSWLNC
Sequence of 92 kD gelatinase (P14780 107-707): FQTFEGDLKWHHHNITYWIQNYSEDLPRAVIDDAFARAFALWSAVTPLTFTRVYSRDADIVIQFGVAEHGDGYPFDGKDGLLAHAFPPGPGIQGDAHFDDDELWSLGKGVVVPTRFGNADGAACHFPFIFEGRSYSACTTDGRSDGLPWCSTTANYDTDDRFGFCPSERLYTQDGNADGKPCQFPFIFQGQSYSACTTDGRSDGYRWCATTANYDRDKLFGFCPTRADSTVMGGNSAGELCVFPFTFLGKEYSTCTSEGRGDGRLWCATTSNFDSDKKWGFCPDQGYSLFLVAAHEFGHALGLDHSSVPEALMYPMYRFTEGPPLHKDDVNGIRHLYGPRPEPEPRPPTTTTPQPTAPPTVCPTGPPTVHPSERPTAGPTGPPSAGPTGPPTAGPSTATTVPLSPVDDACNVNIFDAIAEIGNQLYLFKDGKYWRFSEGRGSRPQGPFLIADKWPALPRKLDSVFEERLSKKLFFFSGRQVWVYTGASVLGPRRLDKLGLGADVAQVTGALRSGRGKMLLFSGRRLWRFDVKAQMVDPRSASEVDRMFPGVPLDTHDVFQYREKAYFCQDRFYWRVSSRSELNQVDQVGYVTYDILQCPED
Sequence of human neutrophil collagenase (P22894 101-467): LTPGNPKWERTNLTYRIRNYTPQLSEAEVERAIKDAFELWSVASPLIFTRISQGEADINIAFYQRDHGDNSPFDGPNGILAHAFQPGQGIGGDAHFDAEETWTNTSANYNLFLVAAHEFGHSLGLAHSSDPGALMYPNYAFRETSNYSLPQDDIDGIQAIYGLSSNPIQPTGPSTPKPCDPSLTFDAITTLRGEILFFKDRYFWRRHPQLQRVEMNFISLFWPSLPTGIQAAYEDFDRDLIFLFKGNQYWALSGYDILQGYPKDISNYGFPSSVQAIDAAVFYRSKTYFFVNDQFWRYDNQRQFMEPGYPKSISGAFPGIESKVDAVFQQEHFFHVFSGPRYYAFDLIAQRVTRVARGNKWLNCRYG

With `O=C(N[C@@H](CCc1ccccc1)C(=O)Nc1n[nH]c(=S)s1)OCC1c2ccccc2-c2ccccc21` [5-(N-(9-flourenylmethoxycarbonyl)homophenylalanylamino)-1,3,4-thiadiazole-2-thione] as the molecule, how does the Ki (stromelysin) read?
The Ki was 436 nM.

What about the Ki (92 kD gelatinase) of the same molecule?
The Ki was 0.35 nM.

What about the “% inhibition (concentration [μM]) of cartilage degradation” value (“% inhibition (concentration [μM])” for short) ([1]; 50 μM compound) of the same molecule?
Its value is 65%.

`CC(C)[C@H](NC(=O)OCC1c2ccccc2-c2ccccc21)C(=O)Nc1n[nH]c(=S)s1` [5-(N-(9-fluorenylmethoxycarbonyl)valylamino)-1,3,4-thiadiazole-2-thione] was tested. Which Ki (stromelysin) did it give?
The Ki was 128 nM.

What about the inhibition at 20 µM ([1]; Bos taurus, 20 μM compound, read-out: % inhibition (concentration [μM]) of cartilage degradation) of the same molecule?
Its inhibition at 20 µM is 42%.

What does the source list for `CC(C)[C@H](NC(=O)Cc1ccc(-c2ccccc2)cc1)C(=O)Nc1n[nH]c(=S)s1` [5-(N-((4-phenyl)phenylacetyl)valylamino)-1,3,4-thiadiazole-2-thione]?
Ki (stromelysin): 100 nM; inhibition at 25 µM ([1]; Bos taurus, 25 μM compound, read-out: % inhibition (concentration [μM]) of cartilage degradation): 47%

Which Ki (stromelysin) does the source give for `CC(C)[C@H](NC(=O)[C@H](Cc1ccc(OCc2ccccc2)cc1)NC(=O)OCc1ccccc1)C(=O)Nc1n[nH]c(=S)s1` [5-(N-benzyloxycarbnyl-(O-benzyl)tyrosyl-valylamino)-1,3,4-thiadiazole-2-thione] here?
Its Ki is 80 nM.

What about the Ki [2] of the same molecule?
The Ki was 2.15 nM.

And the “% inhibition (concentration [μM])” value ([1]; 50 μM compound)?
The value was 59%.

How did the Ki (stromelysin) turn out when `CC(C)[C@H](NC(=O)[C@H](CCC(=O)NC(c1ccccc1)(c1ccccc1)c1ccccc1)NC(=O)OCc1ccccc1)C(=O)Nc1n[nH]c(=S)s1` [5-(N-benzyloxycarbonyl-(7--N-trityl)glutamyl-valyamino-1,3,4-thiadiazole-2-thione] was run?
The Ki was 91 nM.

What about the “% inhibition (concentration [μM])” value ([1]; 25 μM compound) of the same molecule?
Its value is 56%.

How did the Ki (stromelysin) turn out when `CC(C)[C@H](NC(=O)[C@H](CCC(=O)OCc1ccccc1)NC(=O)OCc1ccccc1)C(=O)Nc1n[nH]c(=S)s1` [5-(N-benzyloxycarbonyl-(O-benzyl)glutamoyl-valylamino)-1,3,4-thiadiazole-2-thione] was run?
Its Ki is 146 nM.

And the “% inhibition (concentration [μM])” value ([1]; 25 μM compound)?
Its value is 33%.

What does the source list for `O=C(N[C@@H](Cc1c[nH]c2ccccc12)C(=O)N[C@@H](Cc1ccccc1)C(=O)Nc1n[nH]c(=S)s1)OCc1ccccc1` [5-(N-benzyloxycarbonyl-tryptoyl-phenylalanylamino)-1,3,4-thiadiazole-2-thione]?
Ki (stromelysin): 225 nM; % inhibition (concentration [μM]) of cartilage degradation ([1]; 50 μM compound): 35%
